# Assay results from PMC11767309 (Molecules, 2025).
# Legend:
# [1] = Complex formation with Fe^3+, spectrophotometric titration; type: physicochemical; conditions: for absorptivity of the complex higher than that of the ligand / molar absorptivity of the complex formed: complex with Fe^3+; for molar absorptivity of the complex formed: slope of absorbance vs. ligand concentration plot; for Molar absorptivities at the longer-wavelength band maxima, ε: free ligand; for absorbance vs. ligand concentration plot: titration at constant Fe(III) content
# Procedure: For this purpose, the following compounds were selected: 1, 3, 6 and 7. The Fe^3+ ions strongly hydrolyze, decreasing the pH of the aqueous system; thus, acidic solutions were used to study the possible complex formation via spectrophotometric titrations.
# The absorption spectra used to determine the molar absorptivity and to evaluate the complex formation constant were recorded with a Specord S600 spectrophotometer (Analytic Jena GmbH, Jena, Germany) in the 190–900 nm wavelength range. During the titration, the ligand concentration was increased at a constant Fe(III) content.
# [2] = target: T1, butyrylcholinesterase (BChE) (Equus caballus, UniProt P81908); assay: biochemical; parameters: species or system equine; conditions: for IC50: BChE IC50 (μM)
# T1 construct: butyrylcholinesterase (BChE, E.C. from equine serum); purchased Sigma Aldrich (St. Louis, MO, USA); host or cells: equine serum
# T1 sequence (P81908 whole entry): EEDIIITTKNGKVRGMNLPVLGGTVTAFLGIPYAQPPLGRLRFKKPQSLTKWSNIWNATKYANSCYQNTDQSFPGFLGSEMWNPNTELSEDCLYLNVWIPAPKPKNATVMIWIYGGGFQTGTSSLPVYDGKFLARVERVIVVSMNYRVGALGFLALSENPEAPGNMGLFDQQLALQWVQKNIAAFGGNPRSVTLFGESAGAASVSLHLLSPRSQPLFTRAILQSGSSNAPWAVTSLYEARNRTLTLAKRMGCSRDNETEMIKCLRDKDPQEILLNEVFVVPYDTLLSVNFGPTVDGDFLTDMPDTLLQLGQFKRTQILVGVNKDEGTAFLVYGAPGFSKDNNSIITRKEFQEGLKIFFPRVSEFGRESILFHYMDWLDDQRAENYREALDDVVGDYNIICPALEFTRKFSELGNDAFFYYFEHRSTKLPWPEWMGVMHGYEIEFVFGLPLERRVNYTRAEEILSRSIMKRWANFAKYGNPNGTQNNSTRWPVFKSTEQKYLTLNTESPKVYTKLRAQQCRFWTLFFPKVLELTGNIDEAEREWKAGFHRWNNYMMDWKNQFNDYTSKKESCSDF
# [3] = target: T2, acetylcholinesterase (AChE) (Electrophorus electricus, UniProt O42275); assay: biochemical; parameters: species or system electric eel; conditions: read-out: AChE Inhibition (%)
# T2 construct: purchased Sigma Aldrich (St. Louis, MO, USA)
# T2 sequence (O42275 24-633): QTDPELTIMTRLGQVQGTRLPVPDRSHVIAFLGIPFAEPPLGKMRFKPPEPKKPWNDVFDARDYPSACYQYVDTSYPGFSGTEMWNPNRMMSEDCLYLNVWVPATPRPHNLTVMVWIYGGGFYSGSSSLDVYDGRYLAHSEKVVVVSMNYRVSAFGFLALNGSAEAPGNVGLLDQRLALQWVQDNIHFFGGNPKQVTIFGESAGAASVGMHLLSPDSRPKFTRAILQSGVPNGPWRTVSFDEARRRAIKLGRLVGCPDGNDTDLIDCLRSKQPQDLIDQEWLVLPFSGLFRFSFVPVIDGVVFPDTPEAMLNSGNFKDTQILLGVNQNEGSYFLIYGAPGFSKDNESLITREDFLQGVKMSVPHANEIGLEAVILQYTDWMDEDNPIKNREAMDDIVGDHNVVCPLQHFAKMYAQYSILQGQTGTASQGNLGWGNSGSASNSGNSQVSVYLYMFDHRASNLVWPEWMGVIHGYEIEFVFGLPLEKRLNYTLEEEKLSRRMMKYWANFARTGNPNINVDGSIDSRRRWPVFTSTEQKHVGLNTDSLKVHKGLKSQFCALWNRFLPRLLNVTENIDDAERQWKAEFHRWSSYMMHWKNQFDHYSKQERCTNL
# BChE = conditions: selectivity BChE over AChE; cited from earlier work
Molecule,IC50 [2],inhibition at 100 µM ([2]; read-out: BChE Inhibition (%)),inhibition at 100 µM [3],other results
"CN(C)C(=O)Oc1ccc(F)cc1/C=C/c1cccs1 [Compound 3, (E)-4-fluoro-2-(2-(thiophen-2-yl)vinyl)phenyl dimethylcarbamate]",1.48 ± 0.36 µM,85%,12.6%,"absorptivity of the complex higher than that of the ligand [1]: about 26%; molar absorptivity of the complex formed [1]: 13,200 M^−1 cm^−1; Molar absorptivities at the longer-wavelength band maxima, ε [1]: 10,440 M^–1cm^–1"
"CN(C)C(=O)Oc1ccc(Cl)cc1/C=C/c1cccs1 [Compound 4, (E)-4-chloro-2-(2-(thiophen-2-yl)vinyl)phenyl dimethylcarbamate]",2.83 ± 0.03 µM,,35%,inhibition at 25 µM ([2]; read-out: BChE Inhibition (%)): 85.3%
"Cc1ccc(/C=C/c2ccccc2OC(=O)N(C)C)s1 [Compound 7, (E)-2-(2-(5-methylthiophen-2-yl)vinyl)phenyl dimethylcarbamate]",0.38 ± 0.01 µM,,17.7%,"Molar absorptivities at the longer-wavelength band maxima, ε [1]: 19,410 M^–1cm^–1; absorbance vs. ligand concentration plot [1]: no deviation from the straight line; inhibition at 25 µM ([2]; read-out: BChE Inhibition (%)): 86.3%"
cymserine,,,,more effective as a BChE inhibitor compared to AChE (BChE): 15 times
"COc1ccc(/C=C/c2cccs2)c(OC(=O)N(C)C)c1 [Compound 6, (E)-5-methoxy-2-(2-(thiophen-2-yl)vinyl)phenyl dimethylcarbamate]",0.9 ± 0.14 µM,,1%,"absorptivity of the complex higher than that of the ligand [1]: ca. 64%; molar absorptivity of the complex formed [1]: about 26,700 M^−1 cm^−1; Molar absorptivities at the longer-wavelength band maxima, ε [1]: 16,330 M^–1cm^–1; inhibition at 25 µM ([2]; read-out: BChE Inhibition (%)): 84.4%"
"CN(C)C(=O)Oc1ccccc1/C=C/c1cccs1 [Compound 1, (E)-2-(2-(thiophen-2-yl)vinyl)phenyl dimethylcarbamate]",0.12 ± 0.09 µM,,30%,"Molar absorptivities at the longer-wavelength band maxima, ε [1]: 22,570 M^–1cm^–1; absorbance vs. ligand concentration plot [1]: no deviation from the straight line; inhibition at 50 µM ([2]; read-out: BChE Inhibition (%)): 85%"
"COc1ccc(OC(=O)N(C)C)c(/C=C/c2cccs2)c1 [Compound 5, (E)-4-methoxy-2-(2-(thiophen-2-yl)vinyl)phenyl dimethylcarbamate]",11.6 ± 0.18 µM,84%,11%,
"Cc1ccc(/C=C/c2cc(F)ccc2OC(=O)N(C)C)s1 [Compound 9, (E)-4-fluoro-2-(2-(5-methylthiophen-2-yl)vinyl)phenyl dimethylcarbamate]",15 ± 2.32 µM,85.2%,23.6%,
"Cc1ccc(OC(=O)N(C)C)c(/C=C/c2cccs2)c1 [Compound 2, (E)-4-methyl-2-(2-(thiophen-2-yl)vinyl)phenyl dimethylcarbamate]",1.05 ± 0.09 µM,,16.7%,inhibition at 10 µM ([2]; read-out: BChE Inhibition (%)): 85%
"Cc1cnc(/C=C/c2cc(Cl)ccc2OC(=O)N(C)C)s1 [Compound 13, (E)-4-chloro-2-(2-(5-methylthiazol-2-yl)vinyl)phenyl dimethylcarbamate]",3.77 ± 0.13 µM,,37.5%,inhibition at 50 µM ([2]; read-out: BChE Inhibition (%)): 84.1%
"Cc1cnc(/C=C/c2cc(F)ccc2OC(=O)N(C)C)s1 [Compound 12, (E)-4-fluoro-2-(2-(5-methylthiazol-2-yl)vinyl)phenyl dimethylcarbamate]",23.4 ± 2.43 µM,81.4%,23.9%,
"Cc1ccc(OC(=O)N(C)C)c(/C=C/c2ccc(C)s2)c1 [Compound 8, (E)-4-methyl-2-(2-(5-methylthiophen-2-yl)vinyl)phenyl dimethylcarbamate]",25.5 ± 0.21 µM,72.5%,25.2%,
"CN(C)C(=O)Oc1cccc(/C=C/c2cccs2)c1 [Compound 11, (E)-3-(2-(thiophen-2-yl)vinyl)phenyl dimethylcarbamate]",11.4 ± 2.48 µM,83.4%,19%,
"Cc1ccc(/C=C/c2cc(Cl)ccc2OC(=O)N(C)C)s1 [Compound 10, (E)-4-chloro-2-(2-(5-methylthiophen-2-yl)vinyl)phenyl dimethylcarbamate]",23.2 ± 3.78 µM,85.7%,27%,
